From ChEMBL document CHEMBL4038292 (Bioorg Med Chem Lett, 2017)
Active and inactive are the calls of the source. No cut-off for these calls is given here.

How the values were obtained:
[1] = system: Mus musculus; experiment: Antinociceptive activity in mouse model of thermal-induced nociception assessed as increase in latency to tail withdrawal at 10 nmol/kg, icv measured up to 60 mins by tail flick test; assay type: functional
[2] = Half life in Kunming mouse brain homogenate at 500 uM by RP-HPLC method; assay type: ADME, tissue-based
[3] = Half life in Kunming mouse plasma at 500 uM by RP-HPLC method; assay type: ADME, cell-free
[4] = system: Mus musculus; experiment: Antinociceptive activity in mouse model of thermal-induced nociception assessed as increase in latency to tail withdrawal at 10 nmol/kg, icv measured up to 50 mins by tail flick test; assay type: functional
[5] = species: Rattus norvegicus; experiment: Selectivity ratio of Ki for displacement of [3H]DPDPE from delta-opioid receptor in Wistar rat membrane to Ki for displacement of [3H]DAMGO from mu-opioid receptor in Wistar rat brain membrane; assay type: cell membranes
[6] = system: Mus musculus; experiment: Antinociceptive activity in mouse model of thermal-induced nociception assessed as increase in latency to tail withdrawal at 5 mg/kg, sc measured up to 50 mins by tail flick test; assay type: functional, organism-based
[7] = target: Delta-type opioid receptor (Rattus norvegicus, UniProt P33533); experiment: Displacement of [3H]DPDPE from delta-opioid receptor in Wistar rat brain membrane after 3 hrs by microbeta scintillation counting method; assay type: cell membranes
Delta-type opioid receptor, sequence (P33533 whole entry): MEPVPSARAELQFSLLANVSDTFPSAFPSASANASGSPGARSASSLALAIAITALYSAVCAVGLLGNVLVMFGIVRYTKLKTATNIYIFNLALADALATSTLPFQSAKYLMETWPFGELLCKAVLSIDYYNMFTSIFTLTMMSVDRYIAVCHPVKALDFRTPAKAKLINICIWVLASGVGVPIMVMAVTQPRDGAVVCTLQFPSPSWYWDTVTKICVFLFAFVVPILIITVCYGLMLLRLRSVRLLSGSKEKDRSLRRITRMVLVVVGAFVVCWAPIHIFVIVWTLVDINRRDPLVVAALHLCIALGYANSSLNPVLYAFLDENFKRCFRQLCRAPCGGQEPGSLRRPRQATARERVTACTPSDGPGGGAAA

[8] = target: Mu-type opioid receptor (Rattus norvegicus, UniProt P33535); experiment: Displacement of [3H]DAMGO from mu-opioid receptor in Wistar rat brain membrane after 1 hr by microbeta scintillation counting method; assay type: cell membranes
Mu-type opioid receptor, sequence (P33535 whole entry): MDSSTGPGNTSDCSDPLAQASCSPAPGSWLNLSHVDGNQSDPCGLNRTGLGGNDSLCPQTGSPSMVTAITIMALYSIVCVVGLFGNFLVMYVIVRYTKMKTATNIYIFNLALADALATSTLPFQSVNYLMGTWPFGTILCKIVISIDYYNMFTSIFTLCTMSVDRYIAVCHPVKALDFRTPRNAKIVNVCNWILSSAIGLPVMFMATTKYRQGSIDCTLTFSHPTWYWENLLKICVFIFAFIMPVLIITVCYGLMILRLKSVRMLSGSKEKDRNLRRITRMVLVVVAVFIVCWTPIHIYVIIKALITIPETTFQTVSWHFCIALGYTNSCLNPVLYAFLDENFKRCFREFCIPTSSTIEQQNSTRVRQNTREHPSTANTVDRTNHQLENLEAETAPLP

[9] = Effect on human sperm motility at 10^-7 mol/L measured at 60 mins post dose by Makler counting chamber method (reference value: 64.8 +/- 6.6%); assay type: ADME, cell-based; settings: 1 h, 0.1 µM
[10] = Effect on human sperm motility at 10^-7 mol/L measured immediately post dose by Makler counting chamber method (reference value: 70 +/- 4.2%); assay type: ADME, cell-based; settings: 0.1 µM
[11] = Effect on human sperm motility at 10^-5 mol/L measured at 90 mins post dose by Makler counting chamber method (reference value: 62.1 +/- 5.7%); assay type: ADME, cell-based; settings: 1.5 h, 10 µM
[12] = Effect on human sperm motility at 10^-5 mol/L measured at 60 mins post dose by Makler counting chamber method (reference value: 64.8 +/- 6.6%); assay type: ADME, cell-based; settings: 1 h, 10 µM
[13] = Effect on human sperm motility at 10^-6 mol/L measured at 10 mins post dose by Makler counting chamber method (reference value: 69 +/- 4.7%); assay type: ADME, cell-based; settings: 1 µM
[14] = Effect on human sperm motility at 10^-7 mol/L measured at 30 mins post dose by Makler counting chamber method (reference value: 66.9 +/- 4.6%); assay type: ADME, cell-based; settings: 0.5 h, 0.1 µM
[15] = Effect on human sperm motility at 10^-6 mol/L measured at 90 mins post dose by Makler counting chamber method (reference value: 62.1 +/- 5.7%); assay type: ADME, cell-based; settings: 1.5 h, 1 µM
[16] = Effect on human sperm motility at 10^-5 mol/L measured at 10 mins post dose by Makler counting chamber method (reference value: 69 +/- 4.7%); assay type: ADME, cell-based; settings: 10 µM
[17] = Effect on human sperm motility at 10^-6 mol/L measured immediately post dose by Makler counting chamber method (reference value: 70 +/- 4.2%); assay type: ADME, cell-based; settings: 1 µM
[18] = Effect on human sperm motility at 10^-5 mol/L measured immediately post dose by Makler counting chamber method (reference value: 70 +/- 4.2%); assay type: ADME, cell-based; settings: 10 µM
[19] = Effect on human sperm motility at 10^-7 mol/L measured at 10 mins post dose by Makler counting chamber method (reference value: 69 +/- 4.7%); assay type: ADME, cell-based; settings: 0.1 µM
[20] = Effect on human sperm motility at 10^-6 mol/L measured at 60 mins post dose by Makler counting chamber method (reference value: 64.8 +/- 6.6%); assay type: ADME, cell-based; settings: 1 h, 1 µM
[21] = Effect on human sperm motility at 10^-5 mol/L measured at 30 mins post dose by Makler counting chamber method (reference value: 66.9 +/- 4.6%); assay type: ADME, cell-based; settings: 0.5 h, 10 µM
[22] = Effect on human sperm motility at 10^-6 mol/L measured at 30 mins post dose by Makler counting chamber method (reference value: 66.9 +/- 4.6%); assay type: ADME, cell-based; settings: 0.5 h, 1 µM
[23] = Effect on human sperm motility at 10^-7 mol/L measured at 90 mins post dose by Makler counting chamber method (reference value: 62.1 +/- 5.7%); assay type: ADME, cell-based; settings: 1.5 h, 0.1 µM
[24] = system: Mus musculus; experiment: Antinociceptive activity in mouse model of thermal-induced nociception assessed as increase in latency to tail withdrawal at 5 mg/kg, sc measured up to 90 mins by tail flick test; assay type: functional, organism-based
[25] = system: Mus musculus; experiment: Antinociceptive activity in mouse model of thermal-induced nociception assessed as increase in latency to tail withdrawal at 10 mg/kg, sc measured up to 90 mins by tail flick test; assay type: functional, organism-based
[26] = system: Mus musculus; experiment: Antinociceptive activity in mouse model of thermal-induced nociception assessed as increase in latency to tail withdrawal at 2.5 nmol/kg, icv measured up to 60 mins by tail flick test; assay type: functional
[27] = system: Mus musculus; experiment: Antinociceptive activity in mouse model of thermal-induced nociception assessed as increase in latency to tail withdrawal at 10 nmol/kg, icv measured 10 to 80 mins post dose by tail flick test relative to control; assay type: functional

Question: Which Activity [1] does the source give for `NC(=O)[C@H](Cc1ccccc1)NC(=O)[C@H](Cc1c[nH]c2ccccc12)NC(=O)[C@@H]1CCCN1C(=O)[C@@H](N)Cc1ccc(O)cc1` [ENDOMORPHIN-1] here?
Answer: Its Activity is “Active”.

Question: What about the half-life at 500 µM [2] of the same molecule?
Answer: Its half-life at 500 µM is 0.392 h.

Question: What about the half-life at 500 µM [3] of the same molecule?
Answer: Its half-life at 500 µM is 0.101 h.

Question: For `C[C@@H](NC(=O)[C@@H](N)Cc1ccc(O)cc1)C(=O)NCC(=O)N[C@@H](Cc1ccccc1)C(N)=O`, which Activity [4] is on record?
Answer: The Activity was “Active”.

Question: And the Ratio Ki [5]?
Answer: The Ratio Ki was 1800.

Question: And the Activity [6]?
Answer: Its Activity is “Active”.

Question: And the half-life at 500 µM [2]?
Answer: Its half-life at 500 µM is 4.33 h.

Question: And the half-life at 500 µM [3]?
Answer: The half-life at 500 µM was 4.38 h.

Question: What about the Ki [7] of the same molecule?
Answer: The Ki was 3800 nM.

Question: What about the Ki [8] of the same molecule?
Answer: Its Ki is 2.11 nM.

Question: For `C[C@@H](NC(=O)[C@@H](N)Cc1ccc(O)cc1)C(=O)NCC(=O)N[C@@H](Cc1ccc(Cl)cc1)C(N)=O`, which Activity [4] is on record?
Answer: Its Activity is “Active”.

Question: What about the Activity [6] of the same molecule?
Answer: The Activity was “Active”.

Question: And the half-life at 500 µM [2]?
Answer: Its half-life at 500 µM is 5.29 h.

Question: What about the half-life at 500 µM [3] of the same molecule?
Answer: Its half-life at 500 µM is 3.99 h.

Question: And the Ki [7]?
Answer: The Ki was greater than 1000 nM.

Question: And the Ki [8]?
Answer: Its Ki is 1.24 nM.

Question: What does the source list for `CN1CC[C@]23c4c5ccc(O)c4O[C@H]2[C@@H](O)C=C[C@H]3[C@H]1C5` [MORPHINE]?
Answer: Activity [9]: 69%; Activity [10]: 69.4%; Activity [11]: 55.7%; Activity [12]: 57.6%; Activity [13]: 62.7%; Activity [14]: 67%; Activity [15]: 59.3%; Activity [6]: Active; Activity [16]: 60.2%; Activity [17]: 65.6%; Activity [18]: 62.7%; Activity [19]: 70.8%; Activity [20]: 60.7%; Activity [21]: 58.8%; Activity [22]: 63%; Activity [23]: 57.7%

Question: For `N=C(N)N[C@@H](Cc1ccc(O)cc1)C(=O)N1CCC[C@@H]1C(=O)NCC(=O)N[C@@H](Cc1ccccc1)C(N)=O`, which Ratio Ki [5] is on record?
Answer: Its Ratio Ki is 18.4.

Question: And the half-life at 500 µM [2]?
Answer: Its half-life at 500 µM is 4.94 h.

Question: And the half-life at 500 µM [3]?
Answer: Its half-life at 500 µM is 3.68 h.

Question: What about the Ki [7] of the same molecule?
Answer: Its Ki is 4550 nM.

Question: And the Ki [8]?
Answer: The Ki was 247 nM.

Question: Which Activity [9] does the source give for `C[C@@H](NC(=O)[C@H](Cc1ccc(O)cc1)NC(=N)N)C(=O)NCC(=O)N[C@@H](Cc1ccc(Cl)cc1)C(N)=O` here?
Answer: The Activity was 55.2%.

Question: What about the Activity [24] of the same molecule?
Answer: Its Activity is “Active”.

Question: And the Activity [10]?
Answer: The Activity was 62.7%.

Question: What about the Activity [11] of the same molecule?
Answer: Its Activity is 53.5%.

Question: What about the Activity [25] of the same molecule?
Answer: The Activity was “Active”.

Question: What about the Activity [12] of the same molecule?
Answer: Its Activity is 55.3%.

Question: What about the Activity [26] of the same molecule?
Answer: Its Activity is “Active”.

Question: And the Activity [13]?
Answer: Its Activity is 64.6%.

Question: And the Ratio Ki [5]?
Answer: Its Ratio Ki is 288.

Question: And the Activity [14]?
Answer: Its Activity is 59%.

Question: What about the Activity [15] of the same molecule?
Answer: Its Activity is 78.3%.

Question: What about the Activity [16] of the same molecule?
Answer: Its Activity is 59.3%.

Question: And the half-life at 500 µM [2]?
Answer: Its half-life at 500 µM is 6.52 h.

Question: What about the Activity [17] of the same molecule?
Answer: The Activity was 69.5%.

Question: And the Activity [18]?
Answer: The Activity was 60.1%.

Question: What about the Activity [19] of the same molecule?
Answer: Its Activity is 58.8%.

Question: What about the half-life at 500 µM [3] of the same molecule?
Answer: Its half-life at 500 µM is 3.91 h.

Question: And the Ki [7]?
Answer: Its Ki is 101 nM.

Question: What about the Activity [20] of the same molecule?
Answer: Its Activity is 72%.

Question: And the Ki [8]?
Answer: The Ki was 0.35 nM.

Question: And the Activity [21]?
Answer: Its Activity is 56.1%.

Question: And the MPE [27]?
Answer: The MPE was 90 - 100%.

Question: And the Activity [22]?
Answer: Its Activity is 64.6%.

Question: And the Activity [23]?
Answer: The Activity was 53.2%.

Question: For `C[C@@H](NC(=O)[C@H](Cc1ccc(O)cc1)NC(=N)N)C(=O)NCC(=O)N[C@@H](Cc1ccccc1)C(N)=O`, which Activity [9] is on record?
Answer: The Activity was 58.6%.

Question: What about the Activity [24] of the same molecule?
Answer: Its Activity is “Active”.

Question: And the Activity [10]?
Answer: Its Activity is 66.7%.

Question: And the Activity [11]?
Answer: Its Activity is 56.5%.

Question: What about the Activity [25] of the same molecule?
Answer: The Activity was “Active”.

Question: And the Activity [12]?
Answer: The Activity was 59%.

Question: And the Activity [26]?
Answer: Its Activity is “Active”.

Question: What about the Activity [13] of the same molecule?
Answer: The Activity was 60.6%.

Question: What about the Ratio Ki [5] of the same molecule?
Answer: The Ratio Ki was 2000.

Question: What about the Activity [14] of the same molecule?
Answer: The Activity was 62.8%.

Question: What about the Activity [15] of the same molecule?
Answer: The Activity was 57.3%.

Question: And the Activity [16]?
Answer: The Activity was 60.3%.

Question: And the half-life at 500 µM [2]?
Answer: Its half-life at 500 µM is 6.07 h.

Question: What about the Activity [17] of the same molecule?
Answer: The Activity was 64.5%.

Question: And the Activity [18]?
Answer: The Activity was 62.1%.

Question: And the Activity [19]?
Answer: Its Activity is 68.5%.

Question: What about the half-life at 500 µM [3] of the same molecule?
Answer: Its half-life at 500 µM is 3.87 h.

Question: And the Ki [7]?
Answer: The Ki was 840 nM.

Question: And the Activity [20]?
Answer: The Activity was 58%.

Question: And the Ki [8]?
Answer: The Ki was 0.42 nM.

Question: What about the Activity [21] of the same molecule?
Answer: Its Activity is 59.1%.

Question: And the MPE [27]?
Answer: The MPE was 90 - 100%.

Question: What about the Activity [22] of the same molecule?
Answer: Its Activity is 59.6%.

Question: And the Activity [23]?
Answer: Its Activity is 53.2%.
